Assay results taken from patent US20030129193A1 (priority 2001, published 2003).

Legend:
3LL mouse lung carcinoma = experiment: In vivo tumor thrombosis, 3LL; design: species or system C57BL/6 mice; settings: large (>800 mm^3) 3LL tumors
Description: (§1) Tumor test systems were of four types: i) 3LL mouse lung carcinoma growing subcutaneously in C57BL/6 mice; ii) C1300 mouse neuroblastoma growing subcutaneously in BALB/c nu/nu mice; iii) HT29 human colorectal carcinoma growing subcutaneously in BALB/c nu/nu mice; and iv) C1300 Muγ mouse neuroblastoma growing subcutaneously in BALB/c nu/nu mice. The C1300 Muγ tumor is an interferon-γ secreting transfectant derived from the C 1300 tumor (Watanabe et al., 1989).
(§2) To establish tumors, 10^6 to 1.5×10^7 tumor cells were injected subcutaneously into the right anterior flank of the mice. When tumors had grown to various sizes, mice were randomly assigned to different study groups. […] Fab′, or bispecific antibody. Other mice received equivalent quantities IgG, Fab′ or bispecific antibody alone. The injections were performed slowly into one of the tail veins over approximately 45 seconds, usually followed by 200 μl of saline.
(§3) Twenty-four hours after being injected with tTF or immunoglobulin-tTF conjugates, the mice were anesthetized with metophane and were exsanguinated by perfusion with heparinized saline. Tumors and normal tissues were excised and immediately fixed in 3% (v/v) formalin. Paraffin sections were cut and stained with hematoxylin and eosin. Blood vessels having open lumens containing erythrocytes and blood vessels containing thrombi were counted. […]

factor X = experiment: Cell free two-stage coagulation assay; type: biochemical; settings: Factor Xa generation, absorption at 405 nm
Experimental: In vitro coagulation activity was tested in a cell free two-stage coagulation assay. Negatively charged phospholipids at a final concentration of 50 μM (phosphatidylserine and phosphatidylcholine from Sigma, Taufkirchen, Germany) in calcium buffer (50 mM Tris pH=8.1, 150 mM NaCl, 2 mg/ml BSA, 5 mM Ca^++) were mixed with Factor VIIa (Sigma, Taufkirchen, Germany) at 10 nM and with samples or controls and incubated for five min at 37° C. Factor X was added to a final concentration of 30 nM and samples were incubated for 5 min at room temperature. Finally, the chromogenic substrate S2765 (Haemochrom, Essen, Germany) was added in a 100 mM EDTA solution. Factor Xa generation as a measure of Tissue Factor activity was determined by the increase in the absorption at 405 nm.
Negatively charged phospholipids at a final concentration of 50 μM (phosphatidylserine and phosphatidylcholine from Sigma, St. Louis, Mo.) in calcium buffer (50 mM Tris pH=8.1, 150 mM NaCl, 2 mg/ml BSA, 5 mM Ca^++) were mixed with Factor VIIa (Sigma. St. Louis, Mo.) at 10 nM and with samples or controls and incubated for five minutes at 37° C. Factor X (Sigma, St. Louis, Mo.) was added to a final concentration of 30 nM and samples were incubated for 5 minutes at room temperature. […] Factor Xa generation as a measure of tissue factor activity was determined by the increase in the absorption at 405 nm.

[1] = system: HT29 human colorectal carcinoma; experiment: Anti-tumor effects and tumor necrosis, HT29; type: in vivo, BALB/c nu/nu mice
[2] = system: C1300 mouse neuroblastoma; experiment: In vivo tumor thrombosis, C1300; design: species or system BALB/c nu/nu mice; settings: large C1300 tumors (>1000 mm^3), 24 hours after injection
Description: as §1, §2, §3

immobilized tTF = target: T1, immobilized tTF (Homo sapiens, UniProt P13726); experiment: Real time binding study (surface plasmon resonance); settings: alone or preincubated with endotoxin or factor VIIa
T1 construct: the extracellular domain of the mature Tissue Factor protein (amino acid 1-219 of the mature protein; inferred from Ni-NTA purification); made in house; host or cells: E. coli (periplasmic secretion, vector pswc7)
T1 sequence (P13726 33-251): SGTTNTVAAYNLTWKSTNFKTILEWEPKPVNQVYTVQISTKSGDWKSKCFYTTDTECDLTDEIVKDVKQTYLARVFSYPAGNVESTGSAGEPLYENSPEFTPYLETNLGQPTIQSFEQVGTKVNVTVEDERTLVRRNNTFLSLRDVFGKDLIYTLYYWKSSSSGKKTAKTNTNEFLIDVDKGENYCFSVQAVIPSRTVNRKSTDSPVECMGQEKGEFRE

[3] = Clinical signs of toxicity and histology of normal organs; type: in vivo, SCID mice; settings: for Symptoms: tTF alone
Experimental: Mice were closely observed after treatment for clinical signs of toxicity and clinical status was documented at defined time points (5 minutes, 10 minutes, 15 minutes, 30 minutes, 1 hour, 2 hours, 24 hours, 48 hours, 72 hours). Blood samples were taken from the tail vein at 1 hour, 2 hours and 24 hours to measure TNFα blood levels. Three days after treatment, the mice were anesthetized, blood samples were taken from the vena cava for coagulation tests, and an autopsy was performed to document any changes in gross pathology. Tumors, lymph node metastases and the major normal organs (heart, lung, brain, liver, kidney, colon, spleen, pancreas) were harvested and prepared for histological analysis.
Tissue samples harvested at the time of autopsy were fixed in 3% NBF (normal buffered formalin) and embedded in paraffin wax. Tissue blocs were cut, dewaxed and stained with hematoxilin and eosin (H&E). Tissue sections were analyzed on a light microscope by two independent investigators and histological findings were documented. Tumor sections with necrotic areas were scanned with a GS-700 imaging densitometer (Biorad, Hercules, Calif.) and areas of necrosis were calculated as % of total section area. Statistical Analysis was performed using SPSS software (SPSS Science Software, Erkrath, Germany) applying the Mann-Whitney-U-test for ungrouped data.

[4] = system: H460 human non-small cell lung carcinoma; experiment: Anti-tumor effects, H460; type: in vivo, nu/nu mice
Experimental: The tumor test systems were: i) L540 human Hodgkin's disease tumors growing in SCID mice; ii) C1300 Muγ (interferon-secreting) neuroblastoma growing in nu/nu mice; iii) H460 human non-small cell lung carcinoma growing in nu/nu mice. To establish solid tumors, 1.5×10^7 tumor cells were injected subcutaneously into the right anterior flank of SCID or BALB/c nu/nu mice (Charles River Labs., Wilmingham, Mass.). When the tumors had grown to various diameters mice were assigned to different experimental groups, each containing 4 to 9 mice.
Other mice received equivalent quantities of bispecific antibody alone. The injections were performed over ˜45 seconds into one of the tail veins, followed by 200 μl of saline. The infusions were repeated six days later. Perpendicular tumor diameters were measured at regular intervals and tumor volumes were calculated.

Question: With “tTF: extracellular domain of the mature Tissue Factor protein (amino acid 1-219)” as the substance, how does the “tumor vessels thrombosed, average” value (3LL mouse lung carcinoma) read?
Answer: The value was 62%.

Question: And the “coagulation activities before and after endotoxin removal” value (factor X)?
Answer: Its value is “the same”.

Question: What about the “growth discontinued after treatment” value ([1]; large (1200 mm^3) tumors, i.v.) of the same substance?
Answer: The value was “about 7 days”.

Question: What about the “necrosis in tumor sections” value ([1]; small HT29 tumors, single agents, 24 hours) of the same substance?
Answer: The value was “some necrosis”.

Question: What about the “thrombosis of tumor vessels” value [2] of the same substance?
Answer: The value was “virtually all vessels were thrombosed”.

Question: And the “binding to immobilized tTF” value (immobilized tTF)?
Answer: Its value is “did not bind to or homodimerize with immobilized tTF”.

Question: And the “histological findings in normal organs” value ([3]; light microscopy, three days after treatment)?
Answer: The value was “No histological abnormalities”.

Question: And the Symptoms ([3]; listed as TTF)?
Answer: Its Symptoms is “None”.

Question: What about the Symptoms ([3]; listed as endotoxin-free tTF) of the same substance?
Answer: Its Symptoms is “no clinical signs of toxicity”.

Question: What about the “effect on growth rate” value ([4]; first treatment, small (250 mm^3) tumors) of the same substance?
Answer: Its value is “little effect on growth rate”.

Question: What about the “tumor volume after regression” value ([4]; second treatment given at 900 mm^3) of the same substance?
Answer: Its value is 550 mm^3.
